Source: patent US20190167711A1, “METHODS FOR DIAGNOSIS AND TREATMENT OF ACUTE LYMPHOBLASTIC LEUKEMIA” (MOR RESEARCH APPLICATIONS LTD., priority 2014, published 2019)

Columns and labels:
Format in all cases: cell-based
[1] = system: NAMPT; assay: NAMPT expression by FACS in transfected Nalm-6 cells
Procedure: One to two million NALM-6 transfected cells were collected 48 hours after transfection and fixed using 500 μl fixation and permeabilization buffer prior to immunofluorescent staining of intracellular proteins (e.g., BD Phosflow™ Fix Buffer I (BD Biosciences, San Jose, Calif., USA)) for 15 minutes. Then, pellets were washed twice using PBS and resuspended in 500 μl methanol. Samples were incubated for 2 hours in −20° C. For staining, pellets were washed with PBS and resuspended in 10 ml BD™ Cell Wash buffer (BD Biosciences, San Jose, Calif., USA) containing 2% FCS. The cells were stained for NAMPT using anti-NAMPT antibody (Ab) (1:1000) (R&D Systems®, MN, USA). […] The cells were sorted on flow cytometer (Calibur™ flow cytometer, Becton Dickinson, Le Pont-De-Claix, France) and analyzed using BD CellQuest™ Pro software.
Using open access software programs (TargetScan and miRanda), NAMPT was identified as a predicted target of miR-451. […] NAMPT expression was measured by FACS analysis using a specific NAMPT antibody.
In order to assess a possible association or correlation between miR-451 expression levels and sensitivity to in-vivo treatment of ALL with a NAMPT inhibitor, the effect of the NAMPT inhibitor FK866 was assessed in the presence of elevated levels or lowered levels of miR-451 in ALL xenograft mouse model. […] Tumors volume was measured daily.

[2] = system: NAMPT 3′-UTR; assay: Luciferase reporter assay with NAMPT 3′-UTR; conditions: after transfection
From the text: To perform the reporter assay, the regulatory region of NAMPT is cloned […] of the Firefly luciferase gene in an expression vector, and the resulting recombinant vector, e.g., pLightSwitch 3′UTR, is transfected into cells along with an expression vector comprising the Renilla gene serving as reference. In accordance with some embodiments described herein, a target reporter vector containing the full-length wild type NAMPT 3′ untranslated region (3′-UTR) (pLightSwithch NAMPT 3′UTR) purchased from GeneCopoeia™ (Rockville, Md., USA) was co-transfected into NALM-6 cells along with Renilla luciferase vector as internal vector control. The NAMPT 3′-UTR contains miRNA response elements (MREs), to one of which miRNA-451 specifically binds. Twenty-four hours before transfection, NALM-6 cells were plated in 6 wells until 70% confluent. Two hundred (200) pmol miR-451 mimic, 200 pmol scrambled miR (both purchased from IDT®-Syntezza, Jerusalem, Israel) or 2 μg antagomiR-451 plasmid (GeneCopoeia™, Rockville, Md., USA) were transiently transfected into NALM-6 cells together with 2 μg pLightSwitch NAMPT 3′UTR and Renilla luciferase vector. […] Briefly, cells were collected, lysed to release all proteins (including the luciferase), luciferin was added along with all the necessary cofactors, and the enzymatic activity was quantitatively measured using a luminometer. […]

[3] = system: NAMPT; assay: Western blot of NAMPT in transfected NALM-6 cells; conditions: NALM-6 transient
From the text: (§1) Protein was extracted from NALM-6 cell line using Qproteome™ lysis buffer (Qiagen, Hilden, Germany). The membrane was then probed with one or more of the following antibodies: anti-disintegrin and metalloproteinase domain-containing protein 10 (ADAM10) (1:1000) (Abcam; Cambridge, UK) (see Example 9); anti-chemokine C-X-C motif 16 (CXCL16) (1:1000); anti-NAMPT (1:1000); and anti-GAPDH (1:5000) (Santa Crus Biotechnology, Santa Crus, Calif., USA) (see Examples 5 and 9). The secondary antibodies were goat anti-mouse and goat anti-rabbit (1:10,000) (Sigma®, Saint Louis, Mo., USA), for each antigen according to the manufacturer's instructions. […]
(§2) Intensity of the protein band was measured using an in-house program. […]
(§3) Possible miR-451 targets were evaluated using several open access software programs (e.g., Targetscan, PicTar, miRanda, miRDB). […] In the first screening, the suppression of ADAM10, CXCL16 and NAMPT protein level was analyzed in NALM-6 cells transiently expressing miR-451 mimic (SEQ ID NO: 2) and in cells transiently expressing scrambled-miR (universal sequence; negative control) by Western blot as described in Materials and Methods. […]

[4] = system: ADAM10; assay: Western blot of ADAM10 in transfected NALM-6 cells; conditions: NALM-6 transient
From the text: as §1, §2, §3

Substance: miR-451 mimic: a dsmiR-451 designed to copy or mimic the functionality of mature endogenous miR-451 upon transfection (AAACCGUUACCAUUACUGAGUU; double-stranded mimic, further chemistry not given here; listed as Homo sapiens)
- NAMPT protein expression decreased by [1]: 46%
- relative luciferase activity of NAMPT 3′-UTR reporter decreased by [2]: 80%
- NAMPT protein expression levels compared to scrambled-miR [3]: reduced
- ADAM10 protein level compared to scrambled-miR [4]: only NAMPT protein expression levels were reduced
